We go through 8 substances from the OligoGym collection.

Oligonucleotides are given in HELM: sugar(base)linkage, 5' to 3'; d 2'-deoxyribose, r ribose, m 2'-O-methylribose, p phosphate. ss, as = sense and antisense strand

The data set addresses Cacnb1 (rat). The experiment in a line: reporter assay of Huesken 2005. The note with it: siRNA. For orientation: Reporter assays use an easily measured gene product as a stand-in for the process of interest.
Also: test concentration or dose not given here.

Substance “RNA1{r(A)p.r(C)p.r(C)p.r(C)p.r(C)p.r(A)p.r(G)p.r(C)p.r(A)p.r(A)p.r(A)p.r(C)p.r(A)p.r(C)p.r(A)p.r(U)p.r(U)p.r(A)p.r(U)p.d(T)p.d(T)}|RNA2{r(A)p.r(U)p.r(A)p.r(A)p.r(U)p.r(G)p.r(U)p.r(G)p.r(U)p.r(U)p.r(U)p.r(G)p.r(C)p.r(U)p.r(G)p.r(G)p.r(G)p.r(G)p.r(U)p.d(T)p.d(G)}$$$RNA1{StrandType:ss}|RNA2{StrandType:as}$” returned a normalised inhibition (eCFP-eYFP dual reporter) of 63.4%.

The substance “RNA1{r(U)p.r(G)p.r(G)p.r(U)p.r(G)p.r(G)p.r(G)p.r(A)p.r(C)p.r(C)p.r(A)p.r(U)p.r(C)p.r(G)p.r(C)p.r(U)p.r(C)p.r(A)p.r(A)p.d(T)p.d(T)}|RNA2{r(U)p.r(U)p.r(G)p.r(A)p.r(G)p.r(C)p.r(G)p.r(A)p.r(U)p.r(G)p.r(G)p.r(U)p.r(C)p.r(C)p.r(C)p.r(A)p.r(C)p.r(C)p.r(A)p.d(G)p.d(G)}$$$RNA1{StrandType:ss}|RNA2{StrandType:as}$” showed a normalised inhibition (eCFP-eYFP dual reporter) of 71.2%.

Consider “RNA1{r(G)p.r(C)p.r(A)p.r(G)p.r(A)p.r(G)p.r(U)p.r(C)p.r(C)p.r(U)p.r(A)p.r(C)p.r(A)p.r(C)p.r(G)p.r(A)p.r(G)p.r(C)p.r(C)p.d(T)p.d(T)}|RNA2{r(G)p.r(G)p.r(C)p.r(U)p.r(C)p.r(G)p.r(U)p.r(G)p.r(U)p.r(A)p.r(G)p.r(G)p.r(A)p.r(C)p.r(U)p.r(C)p.r(U)p.r(G)p.r(C)p.d(T)p.d(G)}$$$RNA1{StrandType:ss}|RNA2{StrandType:as}$”, for which the normalised inhibition (eCFP-eYFP dual reporter) was 79.4%.

The substance “RNA1{r(A)p.r(C)p.r(A)p.r(C)p.r(G)p.r(G)p.r(A)p.r(G)p.r(C)p.r(C)p.r(A)p.r(G)p.r(G)p.r(A)p.r(G)p.r(A)p.r(C)p.r(U)p.r(C)p.d(T)p.d(T)}|RNA2{r(G)p.r(A)p.r(G)p.r(U)p.r(C)p.r(U)p.r(C)p.r(C)p.r(U)p.r(G)p.r(G)p.r(C)p.r(U)p.r(C)p.r(C)p.r(G)p.r(U)p.r(G)p.r(U)p.d(A)p.d(G)}$$$RNA1{StrandType:ss}|RNA2{StrandType:as}$” came in with a normalised inhibition (eCFP-eYFP dual reporter) of 48.8%.

Turning to “RNA1{r(A)p.r(A)p.r(G)p.r(G)p.r(G)p.r(C)p.r(G)p.r(G)p.r(U)p.r(U)p.r(C)p.r(A)p.r(A)p.r(A)p.r(A)p.r(G)p.r(G)p.r(U)p.r(C)p.d(T)p.d(T)}|RNA2{r(G)p.r(A)p.r(C)p.r(C)p.r(U)p.r(U)p.r(U)p.r(U)p.r(G)p.r(A)p.r(A)p.r(C)p.r(C)p.r(G)p.r(C)p.r(C)p.r(C)p.r(U)p.r(U)p.d(T)p.d(C)}$$$RNA1{StrandType:ss}|RNA2{StrandType:as}$”, the normalised inhibition (eCFP-eYFP dual reporter) came to 57.7%.

Turning to “RNA1{r(C)p.r(G)p.r(A)p.r(G)p.r(C)p.r(G)p.r(C)p.r(U)p.r(C)p.r(C)p.r(A)p.r(A)p.r(C)p.r(A)p.r(C)p.r(U)p.r(C)p.r(G)p.r(C)p.d(T)p.d(T)}|RNA2{r(G)p.r(C)p.r(G)p.r(A)p.r(G)p.r(U)p.r(G)p.r(U)p.r(U)p.r(G)p.r(G)p.r(A)p.r(G)p.r(C)p.r(G)p.r(C)p.r(U)p.r(C)p.r(G)p.d(A)p.d(T)}$$$RNA1{StrandType:ss}|RNA2{StrandType:as}$”, the normalised inhibition (eCFP-eYFP dual reporter) came to 15.2%.

With “RNA1{r(G)p.r(U)p.r(G)p.r(C)p.r(C)p.r(A)p.r(A)p.r(A)p.r(C)p.r(A)p.r(G)p.r(A)p.r(A)p.r(G)p.r(C)p.r(A)p.r(G)p.r(A)p.r(A)p.d(T)p.d(T)}|RNA2{r(U)p.r(U)p.r(C)p.r(U)p.r(G)p.r(C)p.r(U)p.r(U)p.r(C)p.r(U)p.r(G)p.r(U)p.r(U)p.r(U)p.r(G)p.r(G)p.r(C)p.r(A)p.r(C)p.d(T)p.d(G)}$$$RNA1{StrandType:ss}|RNA2{StrandType:as}$”, the normalised inhibition (eCFP-eYFP dual reporter) was determined as 82.1%.

Substance “RNA1{r(C)p.r(C)p.r(A)p.r(C)p.r(C)p.r(C)p.r(A)p.r(A)p.r(U)p.r(C)p.r(C)p.r(G)p.r(C)p.r(U)p.r(G)p.r(C)p.r(U)p.r(G)p.r(A)p.d(T)p.d(T)}|RNA2{r(U)p.r(C)p.r(A)p.r(G)p.r(C)p.r(A)p.r(G)p.r(C)p.r(G)p.r(G)p.r(A)p.r(U)p.r(U)p.r(G)p.r(G)p.r(G)p.r(U)p.r(G)p.r(G)p.d(C)p.d(G)}$$$RNA1{StrandType:ss}|RNA2{StrandType:as}$” displayed a normalised inhibition (eCFP-eYFP dual reporter) of 81.5%.
